Experimental findings from ChEMBL document CHEMBL1671625, “Comparative in vitro anti-hepatitis C virus activities of a selected series of polymerase, protease, and helicase inhibitors” (Antimicrob Agents Chemother, 2008) are described below.

Structures are written as SMILES.

A short description of series [1]: Cytotoxicity against human HuH6 cells after 3 days by MTT assay. It is filed as cell-based.
The nature of series [2]: Cytotoxicity against human Huh-9-13 cells after 3 days by MTT assay. The format is cell-based. In general terms: Tetrazolium dyes change colour on reduction, which living cells bring about.
Series [3] is described as follows: Cytotoxicity against human Huh-Mono cells after 3 days by MTT assay. It is filed as cell-based.
Series [4] in a line: Cytotoxicity against human Huh5-2 cells after 3 days by MTT assay. The format is cell-based, Huh-5-2.
The test system of series [5] is Hepatitis C virus. The series is described as follows: Antiviral activity against Hepatitis C virus genotype 1b infected in human Huh5-2 cells assessed as reduction in replicon RNA after 4 days by luciferase assay. The note with it: Huh-5-2, 96 h. The format is functional, organism-based, Hepacivirus hominis. (In antiviral work, replicon cells carry a viral genome segment that copies itself.)

Series [6] relates to Hepatitis C virus. The series is described as follows: Antiviral activity against Hepatitis C virus genotype 1b infected in human Huh-9-13 cells assessed as reduction in replicon RNA after 4days by RT-qPCR analysis. It is filed as functional, organism-based, Hepacivirus hominis. To be noted: 96 h.
Series [7] relates to Hepatitis C virus. The series is described as follows: Antiviral activity against Hepatitis C virus genotype 1b infected in human HuH6 cells assessed as reduction in replicon RNA after 4days by RT-qPCR analysis. It is filed as functional, organism-based, Hepacivirus hominis. The note with it: HuH-6, 96 h.
For series [8], the system named is Hepatitis C virus. Briefly: Antiviral activity against Hepatitis C virus genotype 1b infected in human Huh-Mono cells assessed as reduction in replicon RNA after 4 days by RT-qPCR analysis. The format is functional, organism-based, Hepacivirus hominis. The note with it: 96 h.

What is called CC50 is the concentration at which the toxic effect on the cells reaches its halfway point. High values mean better tolerance by the cells, low ones harm at low concentration. Consider `O=C(O)c1cccs1` [THIOPHENE CARBOXYLIC ACID], for which the CC50 at 72 h in series [1], in series [2], in series [3] and in series [4] was > 33000 nM throughout.
A word on the EC50: it is the concentration needed to bring the measured effect to its halfway point. As for `CCC[C@H](NC(=O)[C@@H]1[C@H]2CCC[C@H]2CN1C(=O)[C@@H](NC(=O)[C@@H](NC(=O)c1cnccn1)C1CCCCC1)C(C)(C)C)C(=O)C(=O)NC1CC1`, the CC50 at 72 h in series [1] was 25000 nM; in series [2], 24000 nM; in series [3], > 33000 nM; in series [4] it was > 33000 nM. Further, the EC50 in the series on Hepatitis C virus [5] was 1000 nM; in the series with Hepatitis C virus [6] it was 600 nM; with Hepatitis C virus [7], 1000 nM; in the series on Hepatitis C virus [8] it was 1000 nM.
On to `CNC(=O)c1c(-c2ccc(F)cc2)oc2cc(N(CCO)S(C)(=O)=O)c(C3CC3)cc12` [NESBUVIR], for which the 50% cytotoxic concentration (CC50) at 72 h in series [1], in series [2], in series [3] and in series [4] was > 33000 nM in each case. Besides, the EC50 in the series on Hepatitis C virus [5] worked out at 19 nM; in the series with Hepatitis C virus [6], 30 nM; in the series on Hepatitis C virus [7] it was 20 nM; in the series on Hepatitis C virus [8], 4 nM.
Turning to `C/C=C/C[C@@H](C)[C@@H](O)[C@H]1C(=O)N[C@@H](CC)C(=O)N(C)[C@H](C)C(=O)N(CC)[C@@H](C(C)C)C(=O)N[C@@H](C(C)C)C(=O)N(C)[C@@H](CC(C)C)C(=O)N[C@@H](C)C(=O)N[C@H](C)C(=O)N(C)[C@@H](CC(C)C)C(=O)N(C)[C@@H](CC(C)C)C(=O)N(C)[C@@H](C(C)C)C(=O)N1C` [ALISPORIVIR], the CC50 at 72 h in series [1], in series [2], in series [3] and in series [4] was > 3000 nM throughout. Further, the EC50 was found to be 60 nM in the series on Hepatitis C virus [5], 50 nM in the series on Hepatitis C virus [7] and 40 nM with Hepatitis C virus [8].
On to `[N-]=[N+]=N[C@]1(CO)O[C@@H](n2ccc(N)nc2=O)[C@H](O)[C@@H]1O` [4'-AZIDOCYTIDINE], for which the CC50 at 72 h in series [1], in series [2], in series [3] and in series [4] was > 33000 nM throughout. The EC50 with Hepatitis C virus [5] is 1400 nM; in the series with Hepatitis C virus [6], 1600 nM; with Hepatitis C virus [7] it was 6000 nM; with Hepatitis C virus [8], 2200 nM.
On to `C[C@@]1(O)[C@H](O)[C@@H](CO)O[C@H]1n1cnc2c(N)ncnc21`, for which the CC50 at 72 h in series [1] is > 33000 nM; in series [2], 21000 nM; in series [3], > 33000 nM; in series [4], > 33000 nM. Further, the EC50 in the series with Hepatitis C virus [5] turned out to be 120 nM; in the series with Hepatitis C virus [6], 400 nM; with Hepatitis C virus [7], 290 nM; in the series with Hepatitis C virus [8] it was 1700 nM.
As for `OC[C@H]1O[C@@H](n2nnc3cc(Cl)c(Cl)cc32)[C@H](O)[C@@H]1O`, the CC50 at 72 h in series [1], in series [2], in series [3] and in series [4] was > 100000 nM each time. Further, the EC50 in the series on Hepatitis C virus [5] stood at 10000 nM; in the series on Hepatitis C virus [6], 34000 nM; in the series on Hepatitis C virus [7], 12000 nM; in the series on Hepatitis C virus [8], 53000 nM.
With `C/C=C/C[C@@H](C)[C@@H](O)[C@H]1C(=O)N[C@@H](CC)C(=O)N(C)CC(=O)N(C)[C@@H](CC(C)C)C(=O)N[C@@H](C(C)C)C(=O)N(C)[C@@H](CC(C)C)C(=O)N[C@@H](C)C(=O)N[C@H](C)C(=O)N(C)[C@@H](CC(C)C)C(=O)N(C)[C@@H](CC(C)C)C(=O)N(C)[C@@H](C(C)C)C(=O)N1C` [CYCLOSPORINE], the EC50 amounted to 300 nM with Hepatitis C virus [5], 500 nM with Hepatitis C virus [6], 240 nM with Hepatitis C virus [7] and 300 nM with Hepatitis C virus [8].
For `CC(C)CCn1c(=O)c(C2=NS(=O)(=O)c3ccccc3N2)c(O)c2ccccc21`, the CC50 at 72 h in series [1], in series [2], in series [3] and in series [4] was > 33000 nM throughout. Besides, the EC50 in the series on Hepatitis C virus [5] turned out to be 1800 nM; with Hepatitis C virus [6], 600 nM; with Hepatitis C virus [7], 11300 nM; with Hepatitis C virus [8] it was 1800 nM.
On to `CC(C)(C)NC(=O)N[C@H](C(=O)N1C[C@H]2[C@@H]([C@H]1C(=O)NC(CC1CCC1)C(=O)C(N)=O)C2(C)C)C(C)(C)C` (some centres undefined) [BOCEPREVIR], for which the CC50 at 72 h in series [1], in series [2], in series [3] and in series [4] was > 33000 nM throughout. The EC50 with Hepatitis C virus [6] was 130 nM; with Hepatitis C virus [8], 2000 nM.
As to `C[C@@]1(F)[C@H](O)[C@@H](CO)O[C@@H]1n1ccc(N)nc1=O`, the CC50 at 72 h in series [1], in series [2], in series [3] and in series [4] was > 33000 nM each time. The EC50 stood at 2100 nM in the series on Hepatitis C virus [5], 1700 nM in the series with Hepatitis C virus [6], 1100 nM in the series on Hepatitis C virus [7] and 5000 nM in the series on Hepatitis C virus [8].
Consider `COc1ccc2c(O[C@@H]3C[C@H]4C(=O)N[C@]5(C(=O)O)C[C@H]5/C=C\CCCCC[C@H](NC(=O)OC5CCCC5)C(=O)N4C3)cc(-c3csc(NC(C)C)n3)nc2c1`, for which the CC50 at 72 h in series [1], in series [2], in series [3] and in series [4] was > 3000 nM each time. Moreover, the concentration for a half-maximal effect (EC50) in the series on Hepatitis C virus [5] worked out at 40 nM; in the series on Hepatitis C virus [6] it was 15 nM; in the series with Hepatitis C virus [7], 4 nM; with Hepatitis C virus [8], 10 nM.
On to `Brc1c(Br)c(Br)c2[nH]nnc2c1Br` [TETRABROMOBENZOTRIAZOLE], for which the CC50 at 72 h in series [1], in series [2], in series [3] and in series [4] was > 100000 nM throughout. For the same molecule, the EC50 in the series with Hepatitis C virus [5] was determined as 40000 nM; in the series on Hepatitis C virus [6], 65000 nM; in the series on Hepatitis C virus [7], 43000 nM; with Hepatitis C virus [8], 61000 nM.
With `C[C@@]1(O)[C@H](O)[C@@H](CO)O[C@H]1n1ccc(N)nc1=O`, the CC50 at 72 h is > 33000 nM in series [1], 25000 nM in series [2], > 33000 nM in series [3] and > 33000 nM in series [4]. In addition, the concentration for a half-maximal effect (EC50) with Hepatitis C virus [5] was found to be 2000 nM; with Hepatitis C virus [6], 400 nM; in the series on Hepatitis C virus [7], 700 nM; with Hepatitis C virus [8], 700 nM.
Turning to `O=C(O)CNc1ccc(-c2ccc(Cl)cc2)c(COc2ccc(-c3nc4cc(C(=O)O)ccc4n3C3CCCCC3)cc2)c1`, the CC50 at 72 h in series [1] was 21000 nM; in series [2], 24000 nM; in series [3], 24000 nM; in series [4], 21500 nM. Also, the EC50 with Hepatitis C virus [5] turned out to be 1100 nM; in the series with Hepatitis C virus [6], 1500 nM; in the series on Hepatitis C virus [7], 1200 nM; with Hepatitis C virus [8] it was 800 nM.
